For this data set, the system named is rodent lifetime carcinogenesis bioassay, tumor incidence TD50. The data set is described as follows: chronic cancer bioassays in animals – CPDB, compiled studies (AID 1745844).
Where [1] appears, read: mouse, strain B6C3F1, females, by gavage, site: liver, lesion: hepatocellular adenoma + hepatocellular carcinoma + neoplastic nodule, dosed 103 weeks, study length 104 weeks.
Setting [2] is: mouse, strain B6C3F1, females, by gavage, site: lung, lesion: alveolar/bronchiolar adenoma + alveolar/bronchiolar carcinoma, dosed 103 weeks, study length 104 weeks.
Setting [3] is: mouse, strain B6C3F1, males, by gavage, site: any site (literature study), lesion: several types, types named in the paper, dosed 103 weeks, study length 104 weeks.
Setting [4] is: mouse, strain B6C3F1, males, by gavage, site: lung, lesion: alveolar/bronchiolar adenoma + alveolar/bronchiolar carcinoma, dosed 103 weeks, study length 104 weeks.
[5] abbreviates: rat, strain Fischer 344, females, by gavage, site: liver, lesion: hepatocellular adenoma + hepatocellular carcinoma + neoplastic nodule, dosed 103 weeks, study length 104 weeks.
Setting [6] is: rat, strain Fischer 344, males, by gavage, site: any site (literature study), lesion: several types, types named in the paper, dosed 103 weeks, study length 104 weeks.

Data on 7 compounds can be found in PubChem BioAssay AID1745844 (Carcinogenic Potency Database (CPDB), 2022).

Where “and” joins values, the source holds several entries; their conditions need not be identical. Equal entries are not always repeated. Calls of active or inactive are those of the source. The rule behind the calls is not given here.

In general, TD50 refers to the 50% point of the dose-response relation for the toxic effect studied.

In the case of `Cc1cccc(C)c1`, the TD50 is 7040 mg/kg/day under setting [1]; 5130 mg/kg/day under setting [2]; 4790 mg/kg/day (inactive) (mouse, strain B6C3F1, females, by gavage, site: thyroid gland, lesion: follicular-cell adenoma, dosed 103 weeks, study length 104 weeks); 7600 mg/kg/day under setting [4]; 1930 mg/kg/day (rat, strain Fischer 344, females, by gavage, site: any site (literature study), lesion: several types, types named in the paper, dosed 103 weeks, study length 104 weeks); 51300 mg/kg/day under setting [5]. The TD50 by setting is: (rat, strain Fischer 344, females, by gavage, site: mammary gland, lesion: adenoma, NOS, dosed 103 weeks, study length 104 weeks) 4110 mg/kg/day (inactive); under setting [6], 700 mg/kg/day (inactive); (rat, strain Sprague-Dawley, females, by gavage, site: all sites, lesion: lymphoma and leukemia, combined, dosed 104 weeks, study length 123 weeks) 4170 mg/kg/day; (rat, strain Sprague-Dawley, females, by gavage, site: all sites, lesion: lymphoma and leukemia, combined, dosed 104 weeks, study length 141 weeks) 5170 mg/kg/day; (rat, strain Sprague-Dawley, females, by gavage, site: any site (literature study), lesion: malignant tumor, dosed 104 weeks, study length 123 weeks) 1870 mg/kg/day; (rat, strain Sprague-Dawley, females, by gavage, site: any site (literature study), lesion: malignant tumor, dosed 104 weeks, study length 141 weeks) 524 mg/kg/day. For the same compound, the TD50 reads like this: (rat, strain Sprague-Dawley, females, by gavage, site: any site (literature study), lesion: several types, types named in the paper, dosed 104 weeks, study length 141 weeks) 304 mg/kg/day; (rat, strain Sprague-Dawley, females, by gavage, site: ear duct, lesion: carcinoma, dosed 104 weeks, study length 123 weeks) 18000 mg/kg/day; (rat, strain Sprague-Dawley, females, by gavage, site: head, lesion: carcinoma, dosed 104 weeks, study length 123 weeks) 5620 mg/kg/day; (rat, strain Sprague-Dawley, females, by gavage, site: head, lesion: carcinoma, dosed 104 weeks, study length 141 weeks) 2830 mg/kg/day; (rat, strain Sprague-Dawley, females, by gavage, site: mammary tissue, wider than the gland, lesion: carcinoma, dosed 104 weeks, study length 141 weeks) 1750 mg/kg/day; (rat, strain Sprague-Dawley, females, by gavage, site: oral cavity, lesion: carcinoma, dosed 104 weeks, study length 123 weeks) 5860 mg/kg/day. In addition, the TD50 by setting is: (rat, strain Sprague-Dawley, males, by gavage, site: Zymbal's gland, lesion: carcinoma, dosed 104 weeks, study length 141 weeks) 58400 mg/kg/day; (rat, strain Sprague-Dawley, males, by gavage, site: all sites, lesion: lymphoma and leukemia, combined, dosed 104 weeks, study length 123 weeks) 8150 mg/kg/day; (rat, strain Sprague-Dawley, males, by gavage, site: all sites, lesion: lymphoma and leukemia, combined, dosed 104 weeks, study length 141 weeks) 4170 mg/kg/day; (rat, strain Sprague-Dawley, males, by gavage, site: any site (literature study), lesion: malignant tumor, dosed 104 weeks, study length 123 weeks) 1820 mg/kg/day; (rat, strain Sprague-Dawley, males, by gavage, site: any site (literature study), lesion: malignant tumor, dosed 104 weeks, study length 141 weeks) 1670 mg/kg/day; (rat, strain Sprague-Dawley, males, by gavage, site: any site (literature study), lesion: several types, types named in the paper, dosed 104 weeks, study length 123 weeks) 4070 mg/kg/day. Further, the TD50 is, setting by setting: (rat, strain Sprague-Dawley, males, by gavage, site: ear duct, lesion: carcinoma, dosed 104 weeks, study length 123 weeks) 18300 mg/kg/day; (rat, strain Sprague-Dawley, males, by gavage, site: head, lesion: carcinoma, dosed 104 weeks, study length 123 weeks) 3440 mg/kg/day; (rat, strain Sprague-Dawley, males, by gavage, site: head, lesion: carcinoma, dosed 104 weeks, study length 141 weeks) 5170 mg/kg/day; (rat, strain Sprague-Dawley, males, by gavage, site: oral cavity, lesion: carcinoma, dosed 104 weeks, study length 123 weeks) 4440 mg/kg/day; (rat, strain Sprague-Dawley, males, by gavage, site: oral cavity, lesion: carcinoma, dosed 104 weeks, study length 141 weeks) 5820 mg/kg/day. Besides, the carcinogen call under setting [3] was “negative (inactive)”.
For the compound `Cc1cc(=O)[nH]c(=S)[nH]1`, the TD50 is 53.4 mg/kg/day (hamster, strain Not specified, females, in drinking water, site: thyroid gland, lesion: several types, types named in the paper, dosed 52 weeks, study length 52 weeks) and 1370 mg/kg/day (mouse, strain C3H/FIB, both sexes, in feed, site: liver, lesion: hepatoma, dosed 51 weeks, study length 78 weeks).
On to `ClCC(Cl)(Cl)Cl`, for which the TD50 is, setting by setting: (mouse, strain B6C3F1, females, by gavage, site: any site (literature study), lesion: several types, types named in the paper, dosed 103 weeks, study length 104 weeks) 110 mg/kg/day; under setting [1], 175 mg/kg/day; (mouse, strain B6C3F1, females, by gavage, site: liver, lesion: hepatocellular adenoma + hepatocellular carcinoma, dosed 103 weeks, study length 104 weeks) 175 mg/kg/day; (mouse, strain B6C3F1, females, by gavage, site: liver, lesion: hepatocellular adenoma, dosed 103 weeks, study length 104 weeks) 254 mg/kg/day; (mouse, strain B6C3F1, females, by gavage, site: liver, lesion: hepatocellular carcinoma, dosed 103 weeks, study length 104 weeks) 640 mg/kg/day; under setting [2], 1820 mg/kg/day. The TD50 was 97.9 mg/kg/day under setting [3]; 124 mg/kg/day (mouse, strain B6C3F1, males, by gavage, site: liver, lesion: hepatocellular adenoma + hepatocellular carcinoma + neoplastic nodule, dosed 103 weeks, study length 104 weeks); 124 mg/kg/day (mouse, strain B6C3F1, males, by gavage, site: liver, lesion: hepatocellular adenoma + hepatocellular carcinoma, dosed 103 weeks, study length 104 weeks); 190 mg/kg/day (mouse, strain B6C3F1, males, by gavage, site: liver, lesion: hepatocellular adenoma, dosed 103 weeks, study length 104 weeks); 1330 mg/kg/day under setting [4]; 3980 mg/kg/day under setting [5]. Moreover, the TD50 is 170 mg/kg/day (inactive) (rat, strain Fischer 344, females, by gavage, site: mammary gland, lesion: fibroadenoma, dosed 103 weeks, study length 104 weeks); 464 mg/kg/day under setting [6]; 1130 mg/kg/day (rat, strain Fischer 344, males, by gavage, site: liver, lesion: hepatocellular adenoma + hepatocellular carcinoma + neoplastic nodule, dosed 103 weeks, study length 104 weeks); 842 mg/kg/day (inactive) (rat, strain Fischer 344, males, by gavage, site: multiple organs + peritoneum + tunica vaginalis, lesion: mesothelioma, malignant + mesothelioma, NOS, dosed 103 weeks, study length 104 weeks).
For the compound `CC(C)(C)NCC(O)c1ccc(O)c(CO)c1` (stereo not given), the TD50 (rat, strain Charles River CD (Sprague-Dawley), females, in feed, site: mesovarium, lesion: leiomyoma, dosed 80 weeks, study length 80 weeks) is 36.3 mg/kg/day and the TD50 (rat, strain Charles River CD (Sprague-Dawley), females, in feed, site: mesovarium, lesion: leiomyoma, dosed 104 weeks, study length 104 weeks) was 44.6 mg/kg/day.
As for `Nc1c(F)c(N)c(F)c(F)c1F`, the TD50 runs as follows: (mouse, strain CD-1 HaM/ICR, females, in feed, site: liver, lesion: several types, types named in the paper, dosed 77 weeks, study length 94 weeks) 6500 mg/kg/day (inactive); (mouse, strain CD-1 HaM/ICR, males, in feed, site: any site (literature study), lesion: several types, types named in the paper, dosed 77 weeks, study length 94 weeks) 331 mg/kg/day; (mouse, strain CD-1 HaM/ICR, males, in feed, site: liver, lesion: hepatoma, dosed 77 weeks, study length 94 weeks) 86.3 mg/kg/day and 109 mg/kg/day; (mouse, strain CD-1 HaM/ICR, males, in feed, site: liver, lesion: several types, types named in the paper, dosed 77 weeks, study length 94 weeks) 78.3 mg/kg/day; (mouse, strain CD-1 HaM/ICR, males, in feed, site: lung, lesion: several types, types named in the paper, dosed 77 weeks, study length 94 weeks) 1130 mg/kg/day (inactive); (rat, strain Charles River CD (Sprague-Dawley), males, in feed, site: any site (literature study), lesion: several types, types named in the paper, dosed 77 weeks, study length 98 weeks) 14.6 mg/kg/day (inactive). Also, the carcinogen call (mouse, strain CD-1 HaM/ICR, females, in feed, site: lung, lesion: several types, types named in the paper, dosed 77 weeks, study length 94 weeks) is “negative (inactive)” and the carcinogen call (rat, strain Charles River CD (Sprague-Dawley), males, in feed, site: liver, lesion: several types, types named in the paper, dosed 77 weeks, study length 98 weeks) is “negative (inactive)”.
As to `Cc1ccccc1OCC(O)CNCCn1cc(C)c(=O)[nH]c1=O` (stereo not given), the TD50 amounted to 52.3 mg/kg/day (mouse, strain Charles River CD1, females, in feed, site: any site (literature study), lesion: several types, types named in the paper, dosed 78 weeks, study length 78 weeks); 1670 mg/kg/day (mouse, strain Charles River CD1, females, in feed, site: liver, lesion: hepatocellular carcinoma, dosed 78 weeks, study length 78 weeks); 1670 mg/kg/day (mouse, strain Charles River CD1, females, in feed, site: lung, lesion: adenocarcinoma, dosed 78 weeks, study length 78 weeks); 449 mg/kg/day (mouse, strain Charles River CD1, females, in feed, site: lung, lesion: adenoma, dosed 78 weeks, study length 78 weeks); 935 mg/kg/day (mouse, strain Charles River CD1, males, in feed, site: liver, lesion: hepatocellular carcinoma, dosed 78 weeks, study length 78 weeks).
For `NC(=S)NNS(=O)(=O)c1ccccc1`, the TD50 worked out at 46.6 mg/kg/day (mouse, strain Swiss, females, by gavage, site: liver, lesion: liver-cell tumor, dosed 50 weeks, study length 60 weeks) and 46.6 mg/kg/day (mouse, strain Swiss, females, by gavage, site: lung, lesion: one or several types, types not named, dosed 50 weeks, study length 60 weeks).
